In experiment [1] the test system is IL-6-mediated phosphorylation of Stat3. In words: Immunoblot of IL-6-mediated Stat3 phosphorylation in HepG2 cells. The note with it: Homo sapiens, compound 60 min, then IL-6 30 ng/ml 30 min, read-out: pStat3 IC50, inhibition of IL-6-mediated Stat3 phosphorylation. Type of experiment: cell-based. Here is the method:
The human hepatocellular carcinoma cell line (HepG2) was grown in 6-well plates under standard conditions. Cells were pretreated with compounds (0, 1, 3, 10, 30, 100 and 300 µM) for 1 hour then stimulated under optimal conditions with either interleukin-6 (IL-6; 30 ng/ml for 30 min) to activate Stat3 or interferon gamma (IFN-γ; 30 ng/ml for 30 min) to activate Stat1 [28]. Cultures were then harvested and proteins extracted using high-salt buffer, as described. Briefly, extracts were mixed with 2× sodium dodecyl sulfate (SDS) sample buffer (125 mM Tris-HCL pH 6.8; 4% SDS; 20% glycerol; 10% 2-mercaptoethanol) at a 1∶1 ratio and heated for 5 minutes at 100°C. Proteins (20 µg) were separated by 7.5% SDS-PAGE and transferred to polyvinylidene fluoride (PVDF) membrane (Millipore, Waltham, MA) and immunoblotted. Prestained molecular weight markers (BioRad; Hercules, CA) were included in each gel. Membranes were probed serially with antibody against Stat1 pY701 or Stat3 pY705 followed by antibody against Stat1 or Stat3 (Transduction labs, Lexington, KY) then antibody against β–actin (Abcam, Cambridge, MA). Membranes were stripped between antibody probing using Restore™ Western Blot Stripping Buffer (Thermo Fisher Scientific Inc., Waltham, MA) per the manufacturer's instructions. Horseradish peroxidase-conjugated goat-anti-mouse IgG was used as the secondary antibody (Invitrogen Carlsbad, CA) and the membranes were developed with enhanced chemiluminescence (ECL) detection system (Amersham Life Sciences Inc.; Arlington Heights, IL.).
Figure 2 Effect of compounds on ligand-mediated Stat3 and Stat1 phosphorylation. […] Cells were then stimulated with IL-6 (30 ng/ml) for 30 min. Protein extracts of cells were separated by SDS-PAGE, blotted and developed serially with antibodies to pStat3, total Stat3 and β-actin. Blots were stripped between each antibody probing. Band intensities were quantified by densitometry. […] The best-fitting curve was determined using 4-Parameter Logistic Model/Dose Response/XLfit 4.2, IDBS software and was used to calculate the IC50 value (Table 1). […]
For orientation: In western blotting, separated proteins are transferred to a membrane and probed.

In experiment [2] the test system is cell lines MDA-MB-453 and MCF7. In words: Apoptosis assay, summary over the cell lines without constitutive Stat3 activity. It is filed as cell-based. As to conditions: Homo sapiens, concentrations up to 300 µM, read-out: EC50 apoptosis induction, MDA-MB-453 and MCF7. On the procedure:
(§1) Human breast carcinoma cell lines MDA-MB-468, MDA-MB-231, MBA-MD-435 and MCF7 were kindly provided by Dr. Powel H. Brown (Breast Cancer Center, Baylor College of Medicine). Breast cancer cell line, MDA-MB-453 was kindly provided by Dr. Shou Jiang (Breast Cancer Center, Baylor College of Medicine). All cell lines were grown in DMEM medium supplemented with 10% fetal bovine serum (FBS), 25,000 units penicillin G, 25,000 µg streptomycin, and 131.4 mg L-Glutamine and cultured in the incubator under the condition of 95% air, 5% CO2 at 37°C [33]. Cells were seeded at 2,500 cells/cm^2 into 12-well plates. At 80% confluency, cells were washed with PBS and supplemented with fresh medium containing compound or the topoisomerase I-inhibitor, camptothecin, at 0, 0.1, 0.3, 1, 3, 10, 30, 100, 300 µM. At 24 hours, treatment was terminated by removing the medium from each well. Cells were lysed with cell lysis buffer (600 µl for 30 minutes at 25°C). Cell lysate (200 µl) was centrifuged at 200 g for 10 minutes and 20 µl of each supernatant was assayed for nucleosomes using the Cell Death Detection ELISA (Roche Applied Science) as described by the manufacturer. The percent maximum nucleosome level was calculated by dividing the nucleosome level by the maximum nucleosome level achieved in the assay and multiplying by 100.
(§2) MDA-MB-468 (panel A), MDA-MB-231 (panel B), MDA-MB-435 (panel C), MCF7 (panel D) and MDA-MB-453 (panel E) were seeded in 12-well plates, grown overnight then treated with the indicated compound for 24 hr. Cells were centrifuged and the supernatants assayed for nucleosome levels by ELISA. The percent maximum nucleosome level was calculated (nucleosome level ÷ maximum nucleosome level achieved in the assay ×100) and plotted as a function of the log compound concentration. The best-fitting curve was determined using 4-ParameterLogistic Model/Dose Response One Site/XLfit 4.2, IDBS software and was used to determine the EC50 value (Table 3).

For experiment [3], the system named is breast cancer cell lines with constitutive Stat3 activity—MDA-MB-468, MDA-MB-231 and MDA-MB-435. In words: Apoptosis assay, summary over the cell lines with constitutive Stat3 activity. Type of experiment: cell-based. The note with it: Homo sapiens, 24 hr, read-out: EC50 apoptosis induction, range over three cell lines. On the procedure: as §1, §2
The target in a further experiment is Stat3 (Homo sapiens, UniProt P40763). In words: Stat3/pY-peptide binding assay (SPR, BIAcore). As to conditions: recombinant Stat3 500 nM; immobilized EGFR Y1068 phosphododecapeptide; 25°C; read-out: SPR IC50, inhibition of Stat3 binding to pY peptide ligand. On the procedure:
A control (Stat3 with DMSO but without compound) was run at the beginning and the end of each cycle (40 sample injections) to ensure that the integrity of the sensor chip was maintained throughout the cycle run. The average of the two controls was normalized to 100% and used to evaluate the effect of each compound on Stat3 binding. Responses were normalized by dividing the value at 2 min by the response obtained in the absence of compounds at 2 min and multiplying by 100.
(In general: SPR reads the build-up and loss of mass on a sensor chip optically.)

Stat3, sequence (P40763 whole entry, species assumed): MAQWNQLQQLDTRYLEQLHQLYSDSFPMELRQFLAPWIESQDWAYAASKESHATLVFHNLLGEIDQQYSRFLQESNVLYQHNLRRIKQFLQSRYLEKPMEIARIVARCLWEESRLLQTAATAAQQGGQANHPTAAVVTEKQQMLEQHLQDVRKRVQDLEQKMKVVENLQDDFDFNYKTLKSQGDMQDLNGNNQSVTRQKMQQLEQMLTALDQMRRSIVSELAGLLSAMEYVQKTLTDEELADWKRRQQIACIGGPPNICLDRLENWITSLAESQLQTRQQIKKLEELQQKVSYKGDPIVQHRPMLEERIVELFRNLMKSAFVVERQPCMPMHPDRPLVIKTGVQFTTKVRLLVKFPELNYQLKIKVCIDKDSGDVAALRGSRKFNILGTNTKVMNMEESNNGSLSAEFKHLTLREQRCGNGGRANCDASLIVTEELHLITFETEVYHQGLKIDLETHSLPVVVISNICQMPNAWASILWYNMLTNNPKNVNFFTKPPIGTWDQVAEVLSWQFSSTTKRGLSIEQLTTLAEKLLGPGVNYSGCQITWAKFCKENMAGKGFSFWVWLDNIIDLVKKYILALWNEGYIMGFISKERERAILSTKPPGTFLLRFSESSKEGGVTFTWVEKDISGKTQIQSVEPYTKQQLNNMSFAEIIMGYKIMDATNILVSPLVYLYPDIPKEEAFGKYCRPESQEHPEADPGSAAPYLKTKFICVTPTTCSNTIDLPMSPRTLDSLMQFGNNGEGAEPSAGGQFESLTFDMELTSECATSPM

Usually IC50 stands for the concentration at which inhibition is half-maximal. By EC50 is commonly meant the concentration needed to bring the measured effect to its halfway point. Take `O=C(O)c1ccc(C=CC(=O)c2ccc3c(c2)OCCO3)cc1` [Cpd3, 4-[3-(2,3-dihydro-1,4-benzodioxin-6-yl)-3-oxo-1-propen-1-yl]benzoic acid]: the results for the IC50 (in experiment [1]; at Stat3) were 91 µM and 447 µM, respectively. The EC50 in experiment [2] is > 300 µM; in experiment [3], 2.3 to 26.9 µM.

The record behind these values is publication PMC2653189 (PLoS ONE, 2009).
